Measurements: paper PMC9374667 (Communications Biology, 2022)
Several values for one entry are separate records, joined by “and”; a condition that tells them apart may be missing. Equal values may be shown once. Read-outs that look alike come from different tables or passages of the source.

Assays:
[1] = In vivo pharmacokinetics studies after gavage; settings: male, SD, rat, plasma, po
Experimental: The pharmacokinetic parameters were calculated by the statistical moment method of non-atrioventricular model.
Blood samples (0.5 mL) were collected from the retro-orbital venous plexus at appropriate time points and placed in collection tubes with anticoagulants. Plasma was obtained from the blood samples by centrifuged (4000 rpm, 10 min, 4 °C) and stored at −20 °C until analysis. 400 µL of acetonitrile was added to 200 µL of rat plasmas, and vortexed for 90 s and finally centrifuged at 12,000 rpm for about 10 min. 20 µL of the supernatant was used to determinate the concentration of berberine in plasma by using the liquid chromatography-mass spectrometry (Waters XBridge, Waters, USA).
The maximum peak concentration (Cmax) and the time of reaching Cmax (Tmax) can be obtained from the measured data. The area under the concentration-time curve (AUC0→t) was estimated by the trapezoidal summation. The area under the curve from time zero to infinity (AUC0→∞) was also determined..

IKKε = molecular target: T1, IKKε (Mus musculus, UniProt Q9R0T8); experiment: 3T3-L1 adipocytes transfected with IKKε plasmid (western blotting, cAMP, glycerol, ISO); assay type: cell-based, Murine; parameters: endogenous in cells; host or cells: differentiated 3T3-L1 adipocytes; IKKε (western blotting, Figure 8h) / UCP1 (western blotting, Figure 8i) / UCP1 (western blotting, Figure 8j): scale not given here; cAMP levels (Figure 8k) / Glycerol release (Figure 8l): unit not given here
T1 sequence (Q9R0T8 1-717): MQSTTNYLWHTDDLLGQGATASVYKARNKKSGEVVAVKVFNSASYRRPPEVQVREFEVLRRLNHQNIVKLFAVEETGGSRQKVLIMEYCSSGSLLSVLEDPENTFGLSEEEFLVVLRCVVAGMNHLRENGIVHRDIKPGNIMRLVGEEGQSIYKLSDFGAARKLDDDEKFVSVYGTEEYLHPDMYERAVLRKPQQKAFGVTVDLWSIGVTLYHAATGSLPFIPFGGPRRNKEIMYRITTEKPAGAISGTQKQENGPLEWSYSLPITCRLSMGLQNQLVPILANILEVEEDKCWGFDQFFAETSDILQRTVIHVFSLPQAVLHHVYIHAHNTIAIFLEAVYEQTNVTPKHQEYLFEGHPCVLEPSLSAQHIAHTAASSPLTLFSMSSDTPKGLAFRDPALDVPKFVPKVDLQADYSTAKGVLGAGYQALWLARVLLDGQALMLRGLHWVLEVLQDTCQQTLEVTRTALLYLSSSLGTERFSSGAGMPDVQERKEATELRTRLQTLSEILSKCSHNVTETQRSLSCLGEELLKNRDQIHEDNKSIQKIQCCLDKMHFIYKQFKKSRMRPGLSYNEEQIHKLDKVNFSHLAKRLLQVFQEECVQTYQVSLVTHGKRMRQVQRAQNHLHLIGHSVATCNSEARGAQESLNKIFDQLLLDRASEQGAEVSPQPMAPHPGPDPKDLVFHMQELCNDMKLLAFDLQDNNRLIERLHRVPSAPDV
Experimental: Small interference RNA transfection (siRNA) was performed using 4 μM TBK1 siRNA (siTBK1) or 4 μM […]ε) or corresponding NC siRNA (siNC). The epididymal adipose tissue was dissected, the fresh adipose tissue was weighed and rapidly rinsed with PBS. The adipose tissue was cut and incubated with isoproterenol (10 μM) for 2 h, and homogenized in a cold cleavage buffer to prepare the adipose tissue homogenate. Then the homogenate was centrifuged at 12,000 × g at 4 °C for 15 min, and the supernatant was collected. […] Then the cells were lysed in a petri dish, scraped off, and centrifuged at 12,000 × g at 4 °C for 15 min before the supernatant was collected. […] And concentrations were further standardized according to protein concentration. The adipose tissue or 3T3-L1 adipocytes were homogenized by ultrasound in an ice-cold RIPA lysis buffer containing 1% PMSF and centrifuged at 12,000 × g at 4°C for 15 min to collect the supernatant. The BCA protein assay kit (Beyotime, Shanghai, China) was used to detect the total protein concentration. Proteins (20-30 μg) of the sample were separated by 10% SDS-PAGE gel and transferred onto polyvinylidene difluoride (PVDF) membranes. Then the PVDF membranes were blocked in 5% skim milk powder in TBS containing 1% Tween-20 (TBST) for 2 h at room temperature and washed with TBST for 3 times. […] After washing, the membranes were incubated with horseradish peroxidase-conjugated secondary antibodies (in 5% skim milk powder) for 1 h at room temperature. Finally, the membranes were treated with enhanced chemiluminescence agents (Tanon, Shanghai, China) and the signals were monitored using the Tanon 5200 multi chemiluminescent imaging system (Tanon, Shanghai, China).

TBK1 = experiment: RT-qPCR of Tbk1 in eWAT and BAT; assay type: in vivo; settings: db/db mice, both doses of BJ
From the text: Total RNA was isolated from 3T3-L1 cells and adipose tissue homogenates using Trizol reagent (Invitrogen, Carlsbad, CA, USA). RNA concentration and purity were examined at 260/280 nm using a nanodrop spectrophotometer (NanoDrop One, Thermo Fisher Scientific, USA). The total RNA was reverse transcribed to cDNA using the EasyScript All-in-One First-Strand cDNA Synthesis SuperMix for qPCR kit (TransGen Biotech, Beijing, China). The quantitative reverse transcription polymerase chain reaction was performed using TransStart Top Green qPCR SuperMix (TransGen Biotech, Beijing, China) and an Applied Biosystems 7500 RealTime PCR System (Life Technologies, USA). Relative expression levels were normalized to gapdh expression and quantified using the 2^-ΔΔCt method. The primers were synthesized by Shanghai Sangon Biotech, and the detailed primer sequences were shown in Supplementary Table 5 in the supplementary materials.

[2] = 3T3-L1 adipocytes transfected with IKKε plasmid, 24 h of BJ treatment

COc1ccc2cc3[n+](cc2c1OC)CCc1cc2c(cc1-3)OCO2 [BBR, Berberine chloride dihydrate]
Tmax [1]: 30 ± 4.8 min

CC(C)Cc1ccc(C(C)C(=O)[O-])cc1.COc1ccc2cc3[n+](cc2c1OC)CCc1cc2c(cc1-3)OCO2.O.O.O.O [BJ, berberine-ibuprofen]
IKKε (western blotting, Figure 8h) (IKKε): 0.3064 and 0.3337 and 0.413
IKKε (western blotting, Figure 8h) (IKKε; 3μg IKKε+10μM BJ): 0.3573 and 0.3516 and 0.3871
UCP1 (western blotting, Figure 8i) (IKKε; 3μg IKKε+10μM BJ): 0.8819 and 0.7296 and 0.665
UCP1 (western blotting, Figure 8i) (IKKε; 10μM BJ): 0.7179 and 0.7672 and 0.7892
IKKε protein level (IKKε; [2]): significantly decreased
UCP1 protein level (IKKε; [2]): significantly increased
Glycerol release (Figure 8l) (IKKε; BJ): 86.9484 and 84.4172 and 92.0109
UCP1 (western blotting, Figure 8j) (IKKε; BJ): 0.7729 and 0.7093 and 0.8167
cAMP levels (Figure 8k) (IKKε; BJ): 0.1832 and 0.1783 and 0.1808
Glycerol release (Figure 8l) (IKKε; BJ+IKKε): 68.3861 and 70.0736 and 61.6362
UCP1 (western blotting, Figure 8j) (IKKε; BJ+IKKε): 0.4841 and 0.4628 and 0.4991
cAMP levels (Figure 8k) (IKKε; BJ+IKKε): 0.1738 and 0.178 and 0.1687
Glycerol release (Figure 8l) (IKKε; ISO+BJ): 156.135 and 153.604 and 151.073
UCP1 (western blotting, Figure 8j) (IKKε; ISO+BJ): 0.9653 and 0.8916 and 1.268
cAMP levels (Figure 8k) (IKKε; ISO+BJ): 0.3323 and 0.3162 and 0.3269
Glycerol release (Figure 8l) (IKKε; ISO+BJ+IKKε): 123.229 and 124.917 and 128.292
UCP1 (western blotting, Figure 8j) (IKKε; ISO+BJ+IKKε): 0.6833 and 0.6687 and 0.7939
cAMP levels (Figure 8k) (IKKε; ISO+BJ+IKKε): 0.2266 and 0.2216 and 0.2337
Inhibition of ISO efficacy (UCP1, glycerol release, cAMP) by IKKε overexpression (IKKε; transfected 3T3-L1 adipocytes, 10 µM BJ): ameliorated
Tbk1 mRNA expression in BAT (TBK1): had no effect
mRNA level of TBK1 (Tbk1) in eWAT (TBK1): significantly reduced
